From US20240041042A1, “1-(PYRIDYL)-5-AZINYLPYRAZOLE DERIVATIVES, AND THEIR USE FOR CONTROL OF UNDESIRED PLANT GROWTH” (Bayer Aktiengesellschaft, priority 2020, published 2024)
Where two headings read alike, the source gives them in different places.

What was measured:
Format in all cases: in vivo
[1] = test system: Triticum aestivum (TRZAS); conditions: crop plant compatibility, effect vs untreated controls
Summary of the method: (§1)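 Foliar application at the one-leaf stage: WP/EC formulation, 0.5% additive, 600 l/ha water. Greenhouse-grown in sandy loam. Endpoint is visual % injury relative to untreated controls at about 3 weeks.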

[2] = test system: Zea mays (ZEAMX); conditions: for Post-emergence action against ZEAMX in % (crop plant compatibility): 20 g/ha, effect in comparison to untreated controls; for Post-emergence action against ZEAMX in %: crop plant compatibility, effect vs untreated controls
Summary of the method: as §1

[3] = test system: Abutilon theophrasti (ABUTH); assay: Post-emergence herbicidal action against ABUTH; conditions: visual rating about 3 weeks after treatment vs untreated controls (100% = plants have died, 0% = like control plants)
Summary of the method: (§2)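 Post-emergence greenhouse spray, one-leaf stage, 600 l/ha water plus 0.5% additive; WP or EC formulations; application rates 320 g/ha or lower. Visual % damage vs untreated controls at ~3 weeks.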

[4] = test system: Alopecurus myosuroides (ALOMY); assay: Post-emergence herbicidal action against ALOMY; conditions: visual rating about 3 weeks after treatment vs untreated controls (100% = plants have died, 0% = like control plants)
Summary of the method: as §2

[5] = test system: Amaranthus retroflexus (AMARE); assay: Post-emergence herbicidal action against AMARE
Summary of the method: as §2

[6] = test system: Avena fatua (AVEFA); assay: Post-emergence herbicidal action against AVEFA; conditions: visual rating about 3 weeks after treatment
Summary of the method: as §2

[7] = test system: Digitaria sanguinalis (DIGSA); assay: Post-emergence herbicidal action against DIGSA; conditions: visual rating about 3 weeks after treatment
Summary of the method: as §2

[8] = test system: Echinochloa crus-galli (ECHCG); assay: Post-emergence herbicidal action against ECHCG
Summary of the method: as §2

[9] = test system: Lolium rigidum (LOLRI); assay: Post-emergence herbicidal action against LOLRI
Summary of the method: as §2

[10] = test system: Matricaria inodora (MATIN); assay: Post-emergence herbicidal action against MATIN
Summary of the method: as §2

[11] = test system: Pharbitis purpurea (PHBPU); assay: Post-emergence herbicidal action against PHBPU
Summary of the method: as §2

[12] = test system: Polygonum convolvulus (POLCO); assay: Post-emergence herbicidal action against POLCO
Summary of the method: as §2

[13] = test system: Setaria viridis (SETVI); assay: Post-emergence herbicidal action against SETVI
Summary of the method: as §2

[14] = test system: Verconica persica (VERPE); assay: Post-emergence herbicidal action against VERPE
Summary of the method: as §2

[15] = test system: Viola tricolor (VIOTR); assay: Post-emergence herbicidal action against VIOTR
Summary of the method: as §2

[16] = test system: Oryza sativa (ORYSA); conditions: crop plant compatibility
Summary of the method: as §1

[17] = 320 g/ha, visual rating about 3 weeks after treatment
[18] = 20 g/ha, effect vs untreated controls
[19] = 80 g/ha, effect in comparison to untreated controls

Row | Post-emergence action against ZEAMX in % (crop plant compatibility) [2] | Post-emergence action against ZEAMX in % ([2]; 80 g/ha) | SMILES | Post-emergence action against ABUTH in % ([3]; 80 g/ha) | Post-emergence action against ABUTH in % ([3]; 320 g/ha) | Post-emergence action against ALOMY in % ([4]; 320 g/ha) | Post-emergence action against AMARE in % [5, 17] | Post-emergence action against AVEFA in % ([6]; 80 g/ha) | Post-emergence action against AVEFA in % ([6]; 320 g/ha) | Post-emergence action against DIGSA in % ([7]; 320 g/ha) | Post-emergence action against ECHCG in % ([8]; dosage 320 g/ha) | Post-emergence action against LOLRI in % ([9]; dosage 80 g/ha) | Post-emergence action against LOLRI in % ([9]; dosage 320 g/ha) | Post-emergence action against MATIN in % ([10]; dosage 320 g/ha) | Post-emergence action against PHBPU in % ([11]; dosage 80 g/ha) | Post-emergence action against PHBPU in % ([11]; dosage 320 g/ha) | Post-emergence action against POLCO in % ([12]; dosage 320 g/ha) | Post-emergence action against SETVI in % ([13]; dosage 80 g/ha) | Post-emergence action against VERPE in % ([14]; 320 g/ha, VERPE) | Post-emergence action against VIOTR in % ([15]; 80 g/ha) | Post-emergence action against VIOTR in % ([15]; 320 g/ha) | also measured
1 | 0% | 0% | CCOC(=O)COc1nn(-c2ccccn2)c(-c2ccc(F)nc2)c1C1CC1(F)F (centres unmarked) [Example I-387] |  |  |  |  |  |  |  |  |  |  |  |  |  |  |  |  |  |  | Post-emergence action against TRZAS in % ([1]; 20 g/ha): 0%; Post-emergence action against TRZAS in % ([1]; 80 g/ha): 0%; Post-emergence action against TRZAS in % ([1]; 320 g/ha): 0%; Post-emergence action against ZEAMX in % ([2]; 320 g/ha): 0%
2 | 10% |  | CC(C)=NOC(=O)COc1nn(-c2ncccc2F)c(-c2ccc(F)nc2)c1C1CC1 [Example I-366] | 80% | 90% | 90% | 80% | 90% | 90% | 90% | 90% | 90% | 90% | 80% | 80% | 80% | 80% | 90% | 90% | 80% | 90% | Post-emergence action against DIGSA in % ([7]; 80 g/ha): 80%; Post-emergence action against ECHCG in % ([8]; dosage 80 g/ha): 90%; Post-emergence action against SETVI in % ([13]; dosage 320 g/ha): 90%; Post-emergence action against VERPE in % ([14]; dosage 80 g/ha): 80%; Post-emergence action against ORYSA in % [16, 18]: 0%; Post-emergence action against ORYSA in % [16, 19]: 20%
3 | 0% | 20% | COC(=O)[C@H](C)COC(=O)[C@@H](C)Oc1nn(-c2ccccn2)c(-c2ccc(F)nc2)c1Cl [Example I-275] | 80% | 80% | 100% | 80% | 90% | 90% | 90% | 90% | 90% | 90% | 90% | 90% | 100% | 80% | 90% | 90% | 90% | 90% | Post-emergence action against ALOMY in % ([4]; 80 g/ha): 80%; Post-emergence action against MATIN in % ([10]; dosage 80 g/ha): 80%; Post-emergence action against POLCO in % ([12]; dosage 80 g/ha): 80%; Post-emergence action against SETVI in % ([13]; dosage 320 g/ha): 90%; Post-emergence action against VERPE in % ([14]; dosage 80 g/ha): 90%
4 | 0% | 10% | COCCOC(=O)COc1nn(-c2ncccc2F)c(-c2ccc(F)nc2)c1C1CC1 [Example I-314] | 80% | 80% | 90% | 90% | 90% | 90% | 90% | 90% | 90% | 90% | 80% | 90% | 90% | 90% | 90% | 90% | 90% | 90% | Post-emergence action against ALOMY in % ([4]; 80 g/ha): 90%; Post-emergence action against AMARE in % ([5]; 80 g/ha, visual rating about 3 weeks after treatment vs untreated controls (100% = plants have died, 0% = like control plants)): 90%; Post-emergence action against DIGSA in % ([7]; 80 g/ha): 90%; Post-emergence action against ECHCG in % ([8]; dosage 80 g/ha): 90%; Post-emergence action against SETVI in % ([13]; dosage 320 g/ha): 90%; Post-emergence action against VERPE in % ([14]; dosage 80 g/ha): 90%; Post-emergence action against ORYSA in % [16, 18]: 0%; Post-emergence action against ORYSA in % [16, 19]: 20%
5 | 0% | 0% | COC(=O)CCOC(=O)COc1nn(-c2ccccn2)c(-c2ccc(F)nc2)c1C1CC1(F)F (centres unmarked) [Example I-248] |  |  |  |  |  |  |  |  |  |  |  |  | 90% |  |  | 80% | 80% | 80% | Post-emergence action against TRZAS in % ([1]; 20 g/ha): 0%; Post-emergence action against TRZAS in % ([1]; 80 g/ha): 0%
